# System: M2 macrophages
# Assay: Mac-CD4 T co-culture, surface marker modulation on macrophages
# Assay type: cell-based, human
# Details: relative to vehicle-treated M2 macrophages
# Description: For evaluation of Mac-CD4 T cell surface marker modulation, M2 macrophages were co-cultured with T cells as described above and cells were harvested on day 8, day 9 and day 10 to perform surface receptor staining on both M2 macrophages and T cells.
# Changes in surface marker expression on both macrophages and CD3 & CD28-stimulated T cells were also measured. Vehicle- and β-glucan-treated M2 macrophages and CD T cells from the co-cultures were evaluated by flow cytometry for the modulation of co-stimulatory or co-inhibitory molecules. FIG. 8C and Table 9 are representative results from 2 different experiments.
substance,measurement,setting,value
"β(1,6)-[poly-(1,3)-D-glucopyranosyl]-poly-β(1,3)-D-glucopyranose [β-glucan]",Change in MFI on Macrophages: 4-1BBL,,No change
same,Change in MFI on Macrophages: CD40,,No change
same,Change in MFI on Macrophages: CD80,,No change
same,Change in MFI on Macrophages: CD172,,No change
same,Change in MFI on Macrophages: CD209,,No change
same,Change in MFI on Macrophages: OX40,,No change
same,Change in MFI on Macrophages: HLA-DR,co-culture with CD3 & CD28-stimulated T cells,No change
same,Change in MFI on Macrophages: CD86,day 8,relative increase
same,Change in MFI on Macrophages: PD-L1 (CD274),day 9,relative increase
